The results in this text go back to patent US20230173018A1, “CASPOFUNGIN DERIVATIVES AND ASSAYS FOR EVALUATING ANTIFUNGAL TREATMENT EFFICACY” (priority 2020, published 2023).

Values after ≈ are worked out from the molar mass of the structure shown. Where two headings read alike, the source gives them in different places.

What all share (assay type): cell-based
The subject of one assay is C. albicans CAF2-1. The assay can be described thus: microbe, parasite or virus in culture. As to conditions: strain no. 10, CAF2-1, parental SC5314. In outline: (§1)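 Susceptibility was measured as the MIC by broth double dilution.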
Assay [1] has as its system panel of 49 C. albicans and C. glabrata strains. The assay can be described thus: Antifungal activity (MIC) compared to caspofungin over the panel. As to conditions: for antifungal activity spectrum: resistant vs responsive strains of the panel; for antifungal activity based on MIC values: panel of 49 strains; for MIC values higher than the parent caspofungin: ratio to caspofungin MIC, FIG. 2, Table 2. From the text:
The antifungal activities of compounds 1a, 1 and 2 (collectively: caspofungin derivatives) were compared to that of caspofungin and CSF-BOD using a panel of 49 C. albicans and C. glabrata strains (Tables 1 and 2). The panel included ATCC strains and clinical isolates as well a collection of caspofungin-responsive strains and their corresponding isogenic caspofungin-resistant derivatives, constructed by introducing point mutations within and near the defined hotspots in the FKS1 and/or FKS2 genes of the GS complex. […] MIC values were determined using the broth double-dilution method. The clinical breakpoints (threshold) for caspofungin-resistance in C. albicans and C. glabrata are 1 μg/mL and 0.5 μg/mL, respectively. […]

The subject of another assay is C. glabrata T-192 (1775). The assay can be described thus: MIC, broth double dilution. Conditions: strain no. 44, T-192 (1775), clinical isolate. Summed up: as §1
In assay [2] the test system is C. glabrata T-193 (11-282). The assay can be described thus: MIC, broth double dilution. Conditions: strain no. 45, T-193 (11-282), clinical isolate. In outline: as §1
In assay [3] the test system is C. glabrata T-190 (11-304). Description: MIC, broth double dilution. As to conditions: strain no. 42, T-190 (11-304), clinical isolate. Summed up: as §1
A further assay relates to C. glabrata CST109. The assay can be described thus: MIC, broth double dilution. As to conditions: strain no. 18, C. glabrata CST109 (parental). Summed up: as §1
Assay [4] deals with C. glabrata T-984 (11-078). The assay can be described thus: MIC, broth double dilution. As to conditions: strain no. 48, T-984 (11-078), clinical isolate. Summed up:
as §1

For a further assay, the system named is C. glabrata ATCC 66032. The assay can be described thus: MIC, broth double dilution. Conditions: strain no. 40, C. glabrata ATCC 66032. Summed up: as §1
The test system of the next assay is C. glabrata ATCC 2001. Description: MIC, broth double dilution. As to conditions: strain no. 39, C. glabrata ATCC 2001. Summed up: as §1
For a further assay, the system named is C. glabrata EF1620. Description: MIC, broth double dilution. As to conditions: strain no. 31, C. glabrata EF1620. Summed up:
as §1

The next assay deals with C. albicans ATCC 24433. Description: MIC, broth double dilution. Conditions: strain no. 6, C. albicans ATCC 24433. In outline: as §1
The next assay has as its system C. glabrata CST34. Description: MIC, broth double dilution. Conditions: strain no. 21, C. glabrata CST34 (parental). In outline: as §1
The test system of the next assay is C. glabrata ATCC 90030. The assay can be described thus: MIC, broth double dilution. As to conditions: strain no. 16, C. glabrata ATCC 90030, WT. Summed up: as §1
The next assay concerns C. albicans SN152. Description: MIC, broth double dilution. Summed up: as §1
Assay [5] relates to C. glabrata T-983 (11-079). Description: MIC, broth double dilution. Conditions: strain no. 47, T-983 (11-079), clinical isolate. Summed up: as §1
Another assay relates to C. glabrata BG2. The assay can be described thus: MIC, broth double dilution. As to conditions: strain no. 34, C. glabrata BG2. Summed up: as §1
Setting [6] is: strain no. 5, C. albicans SN152.

As for `CC[C@H](C)C[C@H](C)CCCCCCCCC(=O)N[C@H]1C[C@@H](O)[C@@H](NCCNC(=O)CCc2ccc3n2[B-](F)(F)[N+]2=C(C)C=C(C)C2=C3)NC(=O)[C@@H]2[C@@H](O)CCN2C(=O)[C@H]([C@H](O)CCN)NC(=O)[C@H]([C@H](O)[C@@H](O)c2ccc(O)cc2)NC(=O)[C@@H]2C[C@@H](O)CN2C(=O)[C@H]([C@@H](C)O)NC1=O` [CSF-BOD], the MIC in the assay with C. albicans CAF2-1 was 2 µg/mL (≈ 1.46 µM); against C. glabrata T-192 (1775) it was 2 µg/mL (≈ 1.46 µM); in assay [2], 1 µg/mL (≈ 0.731 µM); in [3] it was 1 µg/mL (≈ 0.731 µM); in the assay with C. glabrata CST109, 2 µg/mL (≈ 1.46 µM); in assay [4], 2 µg/mL (≈ 1.46 µM). The MIC was determined as 2 µg/mL (≈ 1.46 µM) against C. glabrata ATCC 66032; 1 µg/mL (≈ 0.731 µM) against C. glabrata ATCC 2001; 1 µg/mL (≈ 0.731 µM) in the assay on C. glabrata EF1620; 2 µg/mL (≈ 1.46 µM) against C. albicans ATCC 24433; 1 µg/mL (≈ 0.731 µM) in the assay on C. glabrata CST34; 2 µg/mL (≈ 1.46 µM) with C. glabrata ATCC 90030. Moreover, the MIC was found to be 1 µg/mL (≈ 0.731 µM) with C. albicans SN152 (setting [6]), 2 µg/mL (≈ 1.46 µM) in assay [5] and 2 µg/mL (≈ 1.46 µM) against C. glabrata BG2. The “MIC values higher than those of caspofungin” value in assay [1] (against the responsive strains from the tested panel) is recorded as 8-32 fold. Moreover, the antifungal activity spectrum entry in assay [1] is reported as “identical to that of caspofungin”.

On to `CC[C@H](C)C[C@H](C)CCCCCCCCC(=O)N[C@H]1C[C@@H](O)[C@@H](NCCN)NC(=O)[C@@H]2[C@@H](O)CCN2C(=O)[C@H]([C@H](O)CCN)NC(=O)[C@H]([C@H](O)[C@@H](O)c2ccc(OCc3cn(CCCNC(=O)c4ccc(-c5c6ccc(=[N+](C)C)cc-6oc6cc(N(C)C)ccc56)c(C(=O)[O-])c4)nn3)cc2)NC(=O)[C@@H]2C[C@@H](O)CN2C(=O)[C@H]([C@@H](C)O)NC1=O` [Compound 1], for which the MIC in the assay on C. albicans CAF2-1 is 0.5 µg/mL (≈ 0.304 µM); against C. glabrata T-192 (1775), 0.5 µg/mL (≈ 0.304 µM); in assay [2] it was 1 µg/mL (≈ 0.608 µM); in assay [3], 0.5 µg/mL (≈ 0.304 µM); in the assay with C. glabrata CST109, 1 µg/mL (≈ 0.608 µM); in assay [4] it was 0.5 µg/mL (≈ 0.304 µM). The MIC in the assay on C. glabrata ATCC 66032 was 1 µg/mL (≈ 0.608 µM); in the assay with C. glabrata ATCC 2001, 1 µg/mL (≈ 0.608 µM); in the assay on C. glabrata EF1620 it was 0.5 µg/mL (≈ 0.304 µM); in the assay with C. albicans ATCC 24433, 0.5 µg/mL (≈ 0.304 µM); with C. glabrata CST34 it was 0.5 µg/mL (≈ 0.304 µM); against C. glabrata ATCC 90030, 1 µg/mL (≈ 0.608 µM). Further, the values for the MIC (in the assay with C. albicans SN152 (setting [6]); in assay [5]; with C. glabrata BG2) were 0.25 µg/mL (≈ 0.152 µM), 0.5 µg/mL (≈ 0.304 µM) and 1 µg/mL (≈ 0.608 µM), respectively. The “antifungal activity based on MIC values” in assay [1] is recorded as “retained antifungal activities”. Moreover, the “MIC values higher than the parent caspofungin” value in assay [1] is 4-16. Besides, in [1], the antifungal activity spectrum result is listed as “identical to that of caspofungin”.

Consider `C#CCOc1ccc([C@H](O)[C@@H](O)[C@@H]2NC(=O)[C@@H]3C[C@@H](O)CN3C(=O)[C@H]([C@@H](C)O)NC(=O)[C@@H](NC(=O)CCCCCCCC[C@@H](C)C[C@@H](C)CC)C[C@@H](O)[C@@H](NCCN)NC(=O)[C@@H]3[C@@H](O)CCN3C(=O)[C@H]([C@H](O)CCN)NC2=O)cc1` [Compound 1a], for which the “antifungal activity based on MIC values” in [1] was “retained antifungal activities”. The “MIC values higher than the parent caspofungin” value in assay [1] was 1-8. Besides, the MIC came to 0.5 µg/mL (≈ 0.442 µM) against C. glabrata T-192 (1775); 1 µg/mL (≈ 0.884 µM) in assay [2]; 0.5 µg/mL (≈ 0.442 µM) in [3]; 1 µg/mL (≈ 0.884 µM) with C. glabrata CST109; 0.5 µg/mL (≈ 0.442 µM) in assay [4]; 1 µg/mL (≈ 0.884 µM) against C. glabrata ATCC 66032. Moreover, the MIC is 0.5 µg/mL (≈ 0.442 µM) in the assay with C. glabrata ATCC 2001; 0.5 µg/mL (≈ 0.442 µM) against C. glabrata EF1620; 0.125 µg/mL (≈ 0.11 µM) with C. albicans ATCC 24433; 0.25 µg/mL (≈ 0.221 µM) with C. glabrata CST34; 1 µg/mL (≈ 0.884 µM) in the assay on C. glabrata ATCC 90030; 0.063 µg/mL (≈ 0.0557 µM) in the assay on C. albicans SN152 (setting [6]). Also, the MIC in [5] was 0.25 µg/mL (≈ 0.221 µM); in the assay with C. glabrata BG2, 0.5 µg/mL (≈ 0.442 µM).

Take `CC[C@H](C)C[C@H](C)CCCCCCCCC(=O)N[C@H]1C[C@@H](O)[C@@H](NCCN)NC(=O)[C@@H]2[C@@H](O)CCN2C(=O)[C@H]([C@H](O)CCN)NC(=O)[C@H]([C@H](O)[C@@H](O)c2ccc(OCc3cn(CCCNc4ccc([N+](=O)[O-])c5nonc45)nn3)cc2)NC(=O)[C@@H]2C[C@@H](O)CN2C(=O)[C@H]([C@@H](C)O)NC1=O` [Compound 2]: the MIC in the assay with C. albicans CAF2-1 was 1 µg/mL (≈ 0.717 µM); against C. glabrata T-192 (1775), 2 µg/mL (≈ 1.43 µM); in [2], 4 µg/mL (≈ 2.87 µM); in [3], 2 µg/mL (≈ 1.43 µM); with C. glabrata CST109, 4 µg/mL (≈ 2.87 µM); in [4], 2 µg/mL (≈ 1.43 µM). In addition, the MIC against C. glabrata ATCC 66032 was 2 µg/mL (≈ 1.43 µM); against C. glabrata ATCC 2001, 2 µg/mL (≈ 1.43 µM); against C. glabrata EF1620, 2 µg/mL (≈ 1.43 µM); in the assay on C. albicans ATCC 24433, 1 µg/mL (≈ 0.717 µM); in the assay with C. glabrata CST34, 4 µg/mL (≈ 2.87 µM); against C. glabrata ATCC 90030, 4 µg/mL (≈ 2.87 µM). The results for the MIC (in the assay with C. albicans SN152 (setting [6]); in assay [5]; against C. glabrata BG2) were 1 µg/mL (≈ 0.717 µM), 2 µg/mL (≈ 1.43 µM) and 4 µg/mL (≈ 2.87 µM), respectively. In assay [1], the “antifungal activity based on MIC values” is on record as “retained antifungal activities”. Moreover, in assay [1], the “MIC values higher than the parent caspofungin” value is 16-16. The antifungal activity spectrum result in assay [1] is given as “identical to that of caspofungin”.

With `CN(C)c1ccc2c(-c3ccc(C(=O)NCCCN=[N+]=[N-])cc3C(=O)[O-])c3ccc(=[N+](C)C)cc-3oc2c1` [Compound 5-TMR-azide], the MIC (with C. albicans CAF2-1; in the assay with C. glabrata T-192 (1775); in [2]; in [3]; in the assay with C. glabrata CST109; in assay [4]) was >64 µg/mL each time. Further, the MIC in the assay on C. glabrata ATCC 66032, in the assay with C. glabrata ATCC 2001, with C. glabrata EF1620, with C. albicans ATCC 24433, in the assay with C. glabrata CST34 and in the assay with C. glabrata ATCC 90030 was >64 µg/mL in each case. Moreover, the MIC (in the assay with C. albicans SN152; in assay [5]; in the assay with C. glabrata BG2) was >64 µg/mL in each case.
